This is an account of results in patent US20210122763A1, “OGA INHIBITOR COMPOUNDS” (Janssen Pharmaceutica NV, priority 2018, published 2021).

The structures appear in SMILES notation.

Experiment [1] concerns the target T1, recombinant human Meningioma Expressed Antigen 5 (MGEA5), also referred to as O-GlcNAcase (OGA) (Homo sapiens, UniProt O60502).
T1 construct: Full length OGA enzyme was purchased at OriGene (cat #TP322411); purchased OriGene TP322411
T1 sequence (O60502 1-916): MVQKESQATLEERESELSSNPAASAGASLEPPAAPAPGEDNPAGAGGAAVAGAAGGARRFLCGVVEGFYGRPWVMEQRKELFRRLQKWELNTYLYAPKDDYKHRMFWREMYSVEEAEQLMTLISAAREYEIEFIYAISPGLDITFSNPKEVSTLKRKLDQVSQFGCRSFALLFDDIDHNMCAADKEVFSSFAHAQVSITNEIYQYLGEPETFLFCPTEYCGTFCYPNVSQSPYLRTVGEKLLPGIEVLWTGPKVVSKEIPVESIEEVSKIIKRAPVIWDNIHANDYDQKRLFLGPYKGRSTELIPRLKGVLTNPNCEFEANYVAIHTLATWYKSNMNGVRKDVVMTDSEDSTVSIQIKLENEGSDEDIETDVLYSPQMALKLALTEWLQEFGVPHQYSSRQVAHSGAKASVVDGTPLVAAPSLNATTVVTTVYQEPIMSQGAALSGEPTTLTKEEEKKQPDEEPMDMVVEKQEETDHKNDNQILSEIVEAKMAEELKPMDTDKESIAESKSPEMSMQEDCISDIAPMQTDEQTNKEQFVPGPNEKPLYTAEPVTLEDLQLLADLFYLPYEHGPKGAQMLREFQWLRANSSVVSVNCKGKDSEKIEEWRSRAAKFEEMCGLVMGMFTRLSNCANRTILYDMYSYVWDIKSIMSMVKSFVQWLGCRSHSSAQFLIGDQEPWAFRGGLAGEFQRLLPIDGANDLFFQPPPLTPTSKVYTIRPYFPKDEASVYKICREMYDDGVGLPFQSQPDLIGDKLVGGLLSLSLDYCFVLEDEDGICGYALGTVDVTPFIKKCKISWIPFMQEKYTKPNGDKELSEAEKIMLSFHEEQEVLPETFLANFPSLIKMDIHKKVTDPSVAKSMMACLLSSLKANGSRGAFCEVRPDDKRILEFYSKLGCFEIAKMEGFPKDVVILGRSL
Put plainly: OGA biochemical assay (inhibition of FM-GlcNAc hydrolysis, fluorescence). Conditions: for Emax: read-out: Enzymatic Emax (%); for IC50: read-out: Enzymatic hOGA, pIC50 (converted). An outline of the steps:
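Full-length OGA at 2 nM was pre-incubated 60 min at room temperature with compound, then FM-GlcNAc at 100 uM final was added in citrate/phosphate buffer pH 7.2 with 0.005% Tween-20. After 6 h at room temperature, carbonate pH 11.0 stopped the reaction. Fluorescence read at 485/538 nm; IC50 and Hill coefficient from curve fit against no-inhibitor and saturating-standard controls.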

In another experiment the target is T2, OGA (Homo sapiens, UniProt O60502).
T2 construct: HEK293 cells inducible for P301L mutant human Tau (isoform 2N4R) were established at Janssen; endogenous in cells; host or cells: HEK293 cells inducible for P301L mutant human Tau (2N4R)
T2 sequence (O60502 1-916): T1 sequence (O60502 1-916)
In words: OGA cellular assay (ICC detection of O-GlcNAcylated proteins in HEK293 cells inducible for P301L mutant human Tau). In kind it is cell-based. Conditions: 6 hours incubation; for Emax: HEK293, HEK293 cells inducible for P301L mutant human Tau, maximum = Thiamet G 200 uM; for EC50: HEK293 cells inducible for P301L mutant human Tau, read-out: Cellular hOGA, pEC50 (converted). An outline of the steps:
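HEK293 cells with inducible P301L 2N4R Tau, seeded in low-glucose medium, were exposed to compounds for 6 hours (0.2% DMSO), then PFA-fixed and stained with CTD110.6. Imaging intensity at 488 nm measured O-GlcNAcylation, with Hoechst nuclei counts for toxicity. IC50s came from non-linear regression, with Thiamet G at 200 uM as maximum inhibition.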

Regarding `Cc1cc(OC2CCN(C(C)c3ccc4c(n3)OCCO4)CC2)ccn1` (stereo not shown) [Compound 45], in experiment [1], the Emax (in general, the maximal effect, on the per cent scale that the assay sets) was found to be 96% and the IC50 is 0.1 µM. Further, at OGA, the Emax was 59% and the EC50 was 0.631 µM.

Take `Cc1cccc(OC2CCN(C(C)c3ccc4c(n3)OCCO4)CC2)n1` (stereo not shown) [Compound 46]: in experiment [1], the Emax came out at 98% and the IC50 was 0.158 µM. Also, on OGA, the Emax was found to be 33% and the EC50 is > 1 µM.

`Cc1cncc(OC2CCN(C(C)c3ccc4c(n3)OCCO4)CC2)c1` (stereo not shown) [Compound 47]: in experiment [1], the maximal effect (Emax) was determined as 99% and the IC50 is 0.0631 µM. Further, on OGA, the Emax was determined as 67% and the EC50 was 0.316 µM.

In the case of `Cc1cc(C(F)(F)F)cc(OC2CCN(C(C)c3nc4c(cc3F)OCCO4)CC2)n1` (stereo not shown) [Compound 48], in experiment [1], the Emax is 98% and the IC50 is 0.02 µM. Further, on OGA, the Emax was 84% and the EC50 was 0.251 µM.

As for `CC(c1nc2c(cc1F)OCCO2)N1CCC(Oc2ccc(C#N)cn2)CC1` (stereo not shown) [Compound 49], in experiment [1], the Emax stood at 99% and the IC50 was 0.02 µM. In addition, at OGA, the Emax was 81% and the EC50 was 0.288 µM.

`CC(c1ccc2c(n1)OCCO2)N1CCC(Oc2ncccc2C#N)CC1` (stereo not shown) [Compound 50]: in experiment [1], the Emax amounted to 95% and the IC50 was 1 µM. Further, at OGA, the Emax is 9% and the EC50 is > 1 µM.

In the case of `CC(c1ccc2c(n1)OCCO2)N1CCC(Oc2ccnc(C#N)c2)CC1` (stereo not shown) [Compound 51], in experiment [1], the Emax came out at 100% and the IC50 is 0.0631 µM. Also, on OGA, the Emax was determined as 60% and the EC50 is 0.631 µM.

`CC(c1ccc2c(n1)OCCO2)N1CCC(Oc2ncc(F)cc2F)CC1` (stereo not shown) [Compound 52]: in experiment [1], the Emax was 96% and the IC50 was 0.501 µM. Besides, on OGA, the Emax was determined as 16% and the EC50 is > 1 µM.

On to `Cc1cc(OC2CCN(C(C)c3cnc4c(c3)OCC4)CC2)cc(C)n1` (stereo not shown) [Compound 58], for which, in experiment [1], the Emax came out at 89% and the IC50 is 1.26 µM. At OGA, this molecule had an Emax of 38%.

As to `Cc1cc(OC2CCN(C(C)c3ccc4c(n3)OCC4)CC2)cc(C)n1` (stereo not shown) [Compound 60], in experiment [1], the Emax was 95% and the IC50 was 0.0398 µM. At OGA, the Emax is 84% and the EC50 is 0.117 µM.

Consider `Cc1cc(OC2CCN(C(C)c3nc4c(cc3F)OCCO4)CC2)cc(C(F)F)n1` (stereo not shown) [Compound 63], for which, in experiment [1], the Emax stood at 96% and the IC50 was 0.01 µM. For the same molecule, at OGA, the Emax is 80% and the EC50 is 0.0794 µM.

`Cc1cc(OC2CCN(C(C)c3ccc4c(n3)OCCO4)CC2)cc(C(F)F)n1` (stereo not shown) [Compound 64]: in experiment [1], the Emax was determined as 94% and the IC50 was 0.0316 µM. At OGA, the Emax is 61% and the EC50 is 0.316 µM.

`Cc1cc(OC2CCN(C(C)c3nc4c(cc3F)OCCO4)CC2)c(Cl)c(C)n1` (stereo not shown) [Compound 65]: in experiment [1], the Emax was found to be 99% and the IC50 is 0.0126 µM. In addition, on OGA, the Emax was determined as 101% and the EC50 is 0.0631 µM.

As for `Cc1cc(OC2CCN(C(C)c3ccc4c(n3)OCCO4)CC2)c(Cl)c(C)n1` (stereo not shown) [Compound 66], in experiment [1], the Emax stood at 96% and the IC50 is 0.0794 µM. Moreover, on OGA, the Emax was 73% and the EC50 is 0.251 µM.

As to `CC(c1ccc2c(n1)OCCO2)N1CCC(Oc2cnc(Cl)nc2)CC1` (stereo not shown) [Compound 67], in experiment [1], the Emax turned out to be 102% and the IC50 was 0.126 µM. Moreover, at OGA, the Emax stood at 60% and the EC50 was 0.631 µM.

Turning to `CC(c1ccc2c(n1)OCCO2)N1CCC(Oc2ccc(C(F)(F)F)nc2)CC1` (stereo not shown) [Compound 68], in experiment [1], the Emax was 94% and the IC50 is 0.0794 µM. In addition, at OGA, the Emax was 57% and the EC50 was 0.794 µM.

For the molecule `CC(c1ccc2c(n1)OCCO2)N1CCC(Oc2cnc(Cl)c(F)c2)CC1` (stereo not shown) [Compound 69], in experiment [1], the Emax was determined as 95% and the IC50 is 0.0794 µM. In addition, on OGA, the Emax came out at 68% and the EC50 was 0.501 µM.

Turning to `Cc1cccnc1OC1CCN(C(C)c2ccc3c(n2)OCCO3)CC1` (stereo not shown) [Compound 70], in experiment [1], the Emax came to 98% and the IC50 is 0.398 µM. Further, at OGA, the Emax was 46% and the EC50 is > 1 µM.

With `Cc1cc(C)nc(OC2CCN(C(C)c3ccc4c(n3)OCCO4)CC2)c1` (stereo not shown) [Compound 71], in experiment [1], the Emax was 100% and the IC50 is 0.126 µM. Also, at OGA, the Emax was 35% and the EC50 was > 1 µM.

Turning to `COc1cc(OC2CCN(C(C)c3ccc4c(n3)OCCO4)CC2)ccn1` (stereo not shown) [Compound 72], in experiment [1], the Emax is 101% and the IC50 was 0.0316 µM. Also, on OGA, the Emax came to 60% and the EC50 is 0.251 µM.

In the case of `Cc1cc(CC2(F)CCN(C(C)c3ccc4c(n3)OCCO4)CC2)cc(C)n1` (stereo not shown) [Compound 73], in experiment [1], the Emax was 90% and the IC50 was 2 µM. Besides, on OGA, the Emax was found to be 18% and the EC50 is > 1 µM.

Consider `CC(c1ccc2c(n1)OCCO2)N1CCC(Oc2cncc(F)c2)CC1` (stereo not shown) [Compound 74], for which, in experiment [1], the Emax is 99% and the IC50 was 0.1 µM. Besides, at OGA, the Emax was found to be 44% and the EC50 is > 1 µM.

Consider `Cc1cc(OCC2CCN(C(C)c3ccc4c(n3)OCCO4)CC2)cc(C)n1` (stereo not shown) [Compound 75], for which, in experiment [1], the Emax came to 99% and the IC50 was 0.398 µM. Moreover, on OGA, the Emax came to 39% and the EC50 is > 1 µM.

With `Cc1cnnc(OC2CCN(C(C)c3ccc4c(n3)OCCO4)CC2)c1` (stereo not shown) [Compound 77], in experiment [1], the Emax is 97% and the IC50 is 0.2 µM. On OGA, the Emax worked out at 35% and the EC50 was > 1 µM.

Consider `Cc1cc(NC2CCN(C(C)c3ccc4c(n3)OCCO4)CC2)cc(C)n1` (stereo not shown) [Compound 78], for which, in experiment [1], the Emax was determined as 99% and the IC50 is 0.1 µM. Moreover, on OGA, the maximal response (Emax) is 55% and the EC50 is 0.813 µM.

For the molecule `COc1cc(OC2CCN(C(C)c3nc4nc(C)sc4cc3F)CC2)cc(C)n1` (stereo not shown) [Compound 79], in experiment [1], the Emax amounted to 101% and the IC50 was 0.00316 µM. Also, on OGA, the Emax worked out at 72% and the EC50 was 0.0398 µM.

With `Cc1cnc(OC2CCN(C(C)c3nc4c(cc3F)OCCO4)CC2)c(C)n1` (stereo not shown) [Compound 84], in experiment [1], the Emax stood at 101% and the IC50 is 0.0158 µM. Further, on OGA, the maximal response (Emax) is 73% and the EC50 is 0.316 µM.

`Cc1cnc(C)c(OC2CCN(C(C)c3nc4c(cc3F)OCCO4)CC2)n1` (stereo not shown) [Compound 87]: in experiment [1], the Emax came out at 97% and the IC50 was 0.0158 µM. Further, at OGA, the Emax was found to be 62% and the EC50 is 0.355 µM.

Consider `Cc1cc(C)c(OC2CCN(C(C)c3nc4c(cc3F)OCCO4)CC2)nn1` (stereo not shown) [Compound 88], for which, in experiment [1], the Emax worked out at 98% and the IC50 is 0.1 µM. Moreover, at OGA, the Emax amounted to 59% and the EC50 is 0.501 µM.

In the case of `Cc1cc(COC2CCN(C(C)c3ccc4c(n3)OCCO4)CC2)cc(C)n1` (stereo not shown) [Compound 89], in experiment [1], the Emax came to 97% and the IC50 is 0.126 µM. Moreover, on OGA, the Emax stood at 63% and the EC50 was ~0.501 µM.

`CC(c1nc2c(cc1F)OCCO2)N1CCC(Oc2ccc(C#N)nn2)CC1` (stereo not shown) [Compound 92]: in experiment [1], the Emax came to 97% and the IC50 is 0.0251 µM. On OGA, the Emax stood at 66% and the EC50 is 0.126 µM.

On to `CC(c1ccc2c(n1)OCCO2)N1CCC(Oc2cc[nH]c(=O)c2)CC1` (stereo not shown) [Compound 93], for which, in experiment [1], the Emax was found to be 98% and the IC50 was 0.251 µM. On OGA, the Emax was found to be 34% and the EC50 is > 1 µM.
